Data taken from PubChem BioAssay (NCI).
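Briefly, cells in 96-well plates were exposed to five compound concentrations for 48 h, and endpoints were estimated by linear interpolation. Here, GI50 denotes the concentration required for 50% inhibition of growth. The concentration for full growth arrest is given as TGI.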

Legend:
Experiment in all cases: NCI-60 cell line screen, 48 h
A498 renal = system: A498 renal
CCRF-CEM leukemia = system: CCRF-CEM leukemia
EKVX NSCLC = system: EKVX NSCLC
HT29 colon = system: HT29 colon
K-562 leukemia = system: K-562 leukemia
NCI/ADR-RES ovarian = system: NCI/ADR-RES ovarian
OVCAR-8 ovarian = system: OVCAR-8 ovarian
SK-OV-3 ovarian = system: SK-OV-3 ovarian
TK-10 renal = system: TK-10 renal
786-0 renal = system: 786-0 renal

SMILES	GI50 (A498 renal) [µM]	TGI (A498 renal) [µM]	GI50 (CCRF-CEM leukemia) [µM]	TGI (CCRF-CEM leukemia) [µM]	GI50 (EKVX NSCLC) [µM]	TGI (EKVX NSCLC) [µM]	GI50 (HT29 colon) [µM]	TGI (HT29 colon) [µM]	GI50 (K-562 leukemia) [µM]	TGI (K-562 leukemia) [µM]	GI50 (NCI/ADR-RES ovarian) [µM]	TGI (NCI/ADR-RES ovarian) [µM]	GI50 (OVCAR-8 ovarian) [µM]	TGI (OVCAR-8 ovarian) [µM]	GI50 (SK-OV-3 ovarian) [µM]	TGI (SK-OV-3 ovarian) [µM]	GI50 (TK-10 renal) [µM]	TGI (TK-10 renal) [µM]	TGI (786-0 renal) [µM]
CCCCCCCCCCCCCCCCCCOc1ccccc1COP(=O)(O)OOCC[N+](C)(C)C	6.88	17.2	0.751	2.02	1.77	10.3	1.21	5.38	1.23	50	6.59	20.6	1.41	9.22	2.38	10.6	1.35	4.49	
O=C(Nc1ccc(F)cc1)c1cc2c(cc1Cl)Sc1nccn1S2(=O)=O		74		> 100		> 100		> 100		> 100		> 100		> 100		> 100			> 100
CC1(C)[C@H]2Cc3cc4nc5ccccn5c4cc3[C@@H]1C2				75.1		32.7		28.3		> 100		36.7		30.5		36.4		33	32.7
Cc1cccc(-c2nc(-c3cnccn3)n(Cc3ccccc3)n2)c1				> 100				> 100		> 100		> 100		> 100		> 100			> 100
O=C(O)c1ccc(Nc2cnc3cc(C(F)(F)F)ccc3n2)cc1				> 100		> 100		> 100		> 100		> 100		> 100				> 100	> 100
COC(=O)[C@H](Cc1ccccc1)NC(=O)N(CCNC(=O)OC(C)(C)C)c1ccccc1		> 100		> 100		> 100		> 100		> 100		> 100		> 100		> 100			> 100
O=C1CN(c2ccccc2)C(=O)CN1NCNN1CC(=O)N(c2ccccc2)CC1=O		> 100		> 100		> 100		> 100						> 100		> 100		> 100	> 100
COc1cc(N(CCCl)CCCl)ccc1/C=N\NC(=O)c1cccnc1	0.523	1.98	23	> 100	31.2	87.5	34.8	> 100	36.6	> 100	24.9	> 100	26.5	> 100			16.9	53.5	
C#CCNC(=O)CC[C@@H](C)[C@H]1CC[C@H]2[C@@H]3CC[C@@H]4CC(=O)CC[C@]4(C)[C@H]3CC[C@]12C	25	> 100	4.39	24.1	20.1	57.9	12.7	34.5	5.19	44.3	16.9	45.3	6.06	32.8	28.8	> 100	18	44.5	
